“And” between values parts separate entries of the source, which are not always exact repeats. Identical values can stand only once. Counter-ions that a name gives are not always drawn. Like-named read-outs stand apart in the source and are kept apart here.
Key:
[1] = cited from earlier work
[2] = tramadol […] [100 mg] p.o., single dose; cited from earlier work
[3] = in vivo, cited from earlier work
[4] = test system: rats and dogs; conditions: repeat-dose; cited from earlier work
[5] = in vitro and in vivo; cited from earlier work
[6] = test system: mice and rats; conditions: cited from earlier work
[7] = oral administration; cited from earlier work
[8] = test system: experienced opioid abusers; conditions: cited from earlier work
[9] = test system: patients undergoing TKA or THA; assay: Example 2: open label study of Tramadol IV in Total knee Arthroplasty or Total Hip Arthroplasty; conditions: for PAIN Intensity Difference, Mean score (SD): 100 mg IV; for Time to first demand of rescue medication after the first dose of Tramadol, Mean: hydrochloride

With `COc1cccc([C@]2(O)CCCC[C@H]2CN(C)C)c1` (racemic) [Tramadol, (±)cis-2-[(dimethylamino)methyl]-1-(3-methoxyphenyl) cyclohexanol hydrochloride] as the compound, how does the “estimated absorption of the oral dose” value ([1]; 100 mg PO) read?
Its value is 86-88%.

What about the AUC0-24 h ([1]; 100 mg i.v.) of the same compound?
Its AUC0-24 h is 3709 ± 977 ng·h/mL.

What about the Vd ([1]; 100 mg i.v.) of the same compound?
Its Vd is 203 L.

What about the t1/2 ([1]; 100 mg i.v.) of the same compound?
Its t1/2 is 5.2 h.

What about the “CL/F (total clearance)” value ([1]; 100 mg i.v., hydrochloride) of the same compound?
Its value is 467 ± 124 mL/min.

What about the “CL/F (total clearance)” value ([1]; 100 mg i.v., listed as tramadol, hydrochloride) of the same compound?
The value was 710 ± 174 mL/min.

And the “time to peak serum concentration (tmax)” value ([1]; 100 mg oral dosing)?
The value was “approximately 2 hours”.

And the AUC0-24 h ([1]; 100 mg p.o.)?
The AUC0-24 h was 2488 ± 774 ng·h/mL.

And the Cmax ([1]; 100 mg p.o.)?
Its Cmax is 280 ± 49 ng/mL.

And the Vd ([1]; 100 mg p.o.)?
Its Vd is 306 L.

What about the t1/2 ([1]; 100 mg p.o.) of the same compound?
The t1/2 was 5.1 h.

And the “CL/F (total clearance)” value ([1]; 100 mg p.o., hydrochloride)?
The value was 710 ± 174 mL/min.

What about the “CL/F (total clearance)” value ([1]; 100 mg p.o., listed as tramadol, hydrochloride) of the same compound?
The value was 467 ± 124 mL/min.

And the “absolute bioavailability of the oral dose” value ([1]; 100 mg, comparison of AUC values, hydrochloride)?
The value was 68±13% and 68%.

What about the “distribution half-life in the initial phase” value ([1]; after IV administration) of the same compound?
Its value is 0.31 ± 0.17 h.

And the “half-life of slower distribution phase” value ([1]; after IV administration)?
Its value is 1.7 ± 0.4 h.

And the first pass metabolism ([1]; estimated)?
The first pass metabolism was ~20%.

And the AUC [2]?
Its AUC is 2177 ± 722 ng·h/mL.

What about the Cmax [2] of the same compound?
Its Cmax is 274 ± 75 ng/mL.

What about the Tmax [2] of the same compound?
The Tmax was 1.6 ± 0.5 h.

What about the t1/2 [2] of the same compound?
The t1/2 was 5.9 ± 0.7 h.

What about the half-life ([3]; iv) of the same compound?
The half-life was 5.6 h.

And the absolute bioavailability ([3]; po)?
Its absolute bioavailability is 90-100%.

And the “increase of elimination half-life” value [3]?
The value was “approximately 2 fold”.

And the “doses with behavioral/clinical signs and convulsions” value [4]?
Its value is ≥ 25 mg/kg/day.

And the genotoxic potential [5]?
The genotoxic potential was “no evidence of genotoxic potential”.

What about the carcinogenic potential [6] of the same compound?
The carcinogenic potential was “no evidence of carcinogenic potential”.

What about the “fertility and teratogenic effects” value [7] of the same compound?
The value was “no safety concerns with respect to fertility or teratogenic effects”.

What about the seizure ([8]; 200 mg IV administered over 5 minutes) of the same compound?
The seizure was “No seizures were observed”.

And the seizure ([8]; 300 mg IV delivered over 2.5 minutes)?
Its seizure is “seizure was observed”.

What about the seizure ([8]; 700 mg IV administered over 1 minute) of the same compound?
The seizure was “seizure was observed”.

And the “ratings of feel drug effect compared to placebo” value ([8]; IV over 5 minutes)?
Its value is “significantly increased ratings”.

And the “ratings of liking / ARCI-MBG scale” value ([8]; tramadol 100 and 200 mg IV, morphine 10 and 20 mg IV, over 5 minutes)?
Its value is “neither dose of tramadol increased ratings”.

What about the major adverse events ([9]; 100 mg IV every 6 hours, 48 hours) of the same compound?
Its major adverse events is “nausea and vomiting, followed by pruritus”.

What about the tolerability ([9]; 100 mg QID, patients with both high and low BMI) of the same compound?
The tolerability was “well tolerated”.

What about the “Morphine usage, Mean” value ([9]; 1st dose Tramadol at wound closure, First 24 hours) of the same compound?
Its value is 10.57 mg.

And the “Morphine usage, Mean” value ([9]; 1st dose Tramadol at wound closure, In 48 hours)?
Its value is 12.98 mg.

And the “Morphine usage, Mean” value ([9]; 1st dose Tramadol at wound closure, Loading dose)?
Its value is 4.05 mg.

What about the “Morphine usage, Mean” value ([9]; 1st dose Tramadol at wound closure, Second 24 hours) of the same compound?
The value was 3.79 mg.

And the “Morphine usage, Mean” value ([9]; 1st dose Tramadol on demand, First 24 hours)?
Its value is 11.03 mg.

What about the “Morphine usage, Mean” value ([9]; 1st dose Tramadol on demand, In 48 hours) of the same compound?
Its value is 12.92 mg.

And the “Morphine usage, Mean” value ([9]; 1st dose Tramadol on demand, Loading dose)?
The value was 3.69 mg.

And the “Morphine usage, Mean” value ([9]; 1st dose Tramadol on demand, Second 24 hours)?
Its value is 4 mg.

And the “PAIN Intensity Difference, Mean score (SD)” value ([9]; 1st dose at wound closure, 0.5 hours post first dose)?
The value was 0 (0.09).

What about the “PAIN Intensity Difference, Mean score (SD)” value ([9]; 1st dose at wound closure, 1 hour post first dose) of the same compound?
The value was −0.3 (1.6).

What about the “PAIN Intensity Difference, Mean score (SD)” value ([9]; 1st dose at wound closure, 2 hours post first dose) of the same compound?
The value was −1.2 (1.8).

And the “PAIN Intensity Difference, Mean score (SD)” value ([9]; 1st dose at wound closure, 3 hours post first dose)?
The value was −2.2 (1.9).

What about the “PAIN Intensity Difference, Mean score (SD)” value ([9]; 1st dose at wound closure, 4 hours post first dose) of the same compound?
Its value is −2.6 (2.0).

What about the “PAIN Intensity Difference, Mean score (SD)” value ([9]; 1st dose at wound closure, 6 hours post first dose) of the same compound?
The value was −3.2 (2.1).

What about the “PAIN Intensity Difference, Mean score (SD)” value ([9]; 1st dose at wound closure, 9 hours post first dose) of the same compound?
Its value is −2.7 (2.2).

What about the “PAIN Intensity Difference, Mean score (SD)” value ([9]; 1st dose at wound closure, 12 hours post first dose) of the same compound?
Its value is −2.2 (2.0).

And the “PAIN Intensity Difference, Mean score (SD)” value ([9]; 1st dose at wound closure, 18 hours post first dose)?
The value was −2.2 (2.1).

And the “PAIN Intensity Difference, Mean score (SD)” value ([9]; 1st dose at wound closure, 24 hours post first dose)?
The value was −1.9 (1.5).

And the “PAIN Intensity Difference, Mean score (SD)” value ([9]; 1st dose at wound closure, 30 hours post first dose)?
Its value is −1.6 (1.4).

What about the “PAIN Intensity Difference, Mean score (SD)” value ([9]; 1st dose at wound closure, 36 hours post first dose) of the same compound?
The value was −1.3 (1.4).

What about the “PAIN Intensity Difference, Mean score (SD)” value ([9]; 1st dose at wound closure, 42 hours post first dose) of the same compound?
Its value is −1.7 (1.8).

And the “PAIN Intensity Difference, Mean score (SD)” value ([9]; 1st dose at wound closure, 48 hours post first dose)?
The value was −1.4 (1.5).

What about the “PAIN Intensity Difference, Mean score (SD)” value ([9]; 1st dose on demand, 0.5 hours post first dose) of the same compound?
The value was −0.1 (2.4).

What about the “PAIN Intensity Difference, Mean score (SD)” value ([9]; 1st dose on demand, 1 hour post first dose) of the same compound?
Its value is −0.5 (2.8).

And the “PAIN Intensity Difference, Mean score (SD)” value ([9]; 1st dose on demand, 2 hours post first dose)?
Its value is 0.2 (2.1).

And the “PAIN Intensity Difference, Mean score (SD)” value ([9]; 1st dose on demand, 3 hours post first dose)?
The value was 0.3 (2.3).

What about the “PAIN Intensity Difference, Mean score (SD)” value ([9]; 1st dose on demand, 4 hours post first dose) of the same compound?
The value was 0.3 (2.6).

And the “PAIN Intensity Difference, Mean score (SD)” value ([9]; 1st dose on demand, 6 hours post first dose)?
The value was 0.1 (2.8).

And the “PAIN Intensity Difference, Mean score (SD)” value ([9]; 1st dose on demand, 9 hours post first dose)?
The value was 0.8 (2.9).

What about the “PAIN Intensity Difference, Mean score (SD)” value ([9]; 1st dose on demand, 12 hours post first dose) of the same compound?
Its value is 1.4 (2.0).

And the “PAIN Intensity Difference, Mean score (SD)” value ([9]; 1st dose on demand, 18 hours post first dose)?
Its value is 1.2 (2.2).

And the “PAIN Intensity Difference, Mean score (SD)” value ([9]; 1st dose on demand, 24 hours post first dose)?
Its value is 1.6 (1.8).

What about the “PAIN Intensity Difference, Mean score (SD)” value ([9]; 1st dose on demand, 30 hours post first dose) of the same compound?
The value was 1.9 (2.4).

And the “PAIN Intensity Difference, Mean score (SD)” value ([9]; 1st dose on demand, 36 hours post first dose)?
Its value is 1.9 (2.1).

What about the “PAIN Intensity Difference, Mean score (SD)” value ([9]; 1st dose on demand, 42 hours post first dose) of the same compound?
Its value is 2.1 (2.1).

What about the “PAIN Intensity Difference, Mean score (SD)” value ([9]; 1st dose on demand, 48 hours post first dose) of the same compound?
The value was 2.4 (2.3).

And the “Time to first demand of rescue medication after the first dose of Tramadol, Mean” value (shortened to “Time to first demand”) ([9]; Tramadol at wound Closure group)?
The value was 2.5 (+/−3) hours and 2.52 hours.

What about the “Time to first demand” value ([9]; Tramadol on demand group) of the same compound?
Its value is 2.11 h.

What about the “Time to first demand” value ([9]; Tramadol on demand group, listed as tramadol) of the same compound?
The value was 2.1 (+/−5.4) hours.

What about the “total amount of morphine used” value ([9]; both groups) of the same compound?
The value was “approximately 15 mg”.

What about the rescue morphine used ([9]; first 24 hours, both groups) of the same compound?
Its rescue morphine used is “about 11 mg”.

And the rescue morphine used ([9]; the next day, both groups)?
The rescue morphine used was 4 mg.

Reference: patent publication US10406122B2 (priority 2011, dated 2019)
